Assay results as given in patent US10905777B2, “Systems and methods for nucleic acid expression in vivo” (DNARx, priority 2015, dated 2021).

Assays:
Rituximab = test: Serum Rituximab ELISA in mice after sequential injection of Rituximab DNA vector; format: in vivo; details: 24 hours, IP pre-treatment (VPA 15 or 2 mg/kg, Theo 30 or 15 mg/kg), 1050 nmoles DexP liposomes, 75 ug DNA, Dex
Procedure: Mice were bled and serum isolated as for G-CSF. Rituximab levels were measured using an Immunoguide ELISA obtained from Eagle Biosciences, and performed according to instructions. […] .
. […] Numbered plasmids (in FIG. 30) were codon-optimized versions of the original, CpG-free but not codon optimized Rituximab DNA sequence.
. […] Thus, significant Rituximab serum levels can be produced by either dual- or single-cassette, 2A peptide-containing DNA vectors.
. Mock-injected mice received LR only without lipid or DNA. Serum levels of Rituximab protein and ALT were assayed 24 hrs later.

human factor IX = test: Human Factor IX ELISA in mice; details: 24 hrs, IP pre-treatment (VPA 2 mg/kg, Theo 30 mg/kg), 1500 nmoles DexP DOTAP SUV, 60 ug factor IX vector, Dex
Procedure: In this Example, three mice were injected per group. […] This was followed two minutes later by a single IV injection of 60 ug of a codon optimized, EF-1-driven single cassette DNA vector encoding the human factor IX cDNA (see constructs in FIGS. 38 and 44). […] Where indicated, animals were also pretreated by IP injection of 2 mg/kg Valproic Acid (VPA) or 30 mg/kg Theophylline (Theo). […] Each mouse was bled as for G-CSF. Blood was collected into tubes containing Potassium EDTA or Sodium Citrate to prevent coagulation and centrifuged to obtain plasma. An AssayPro ELISA specific to human Factor IX was used according to manufacturer's instructions to measure Factor IX expression.

luciferase [1] = test: Mouse spleen luciferase levels after IV PEI:EF-1 Luc DNA complexes with drug pre-injection; format: in vivo; details: mice; day 1; IP drug two hours prior to IV PEI:DNA (12.5 μg); amlexanox 200 μg, chloroquine 1 mg, SAHA 200 μg, tofacitinib 300 μg per mouse
luciferase [2] = test: Mouse lung luciferase activity after IV DNA vector delivery; format: in vivo; details: mice, day 7
Procedure: Lung was homogenized with 500 ul of 1× Lysis buffer (Promega, Wis.). The homogenate was centrifuged at 3000×g at 4C for 10 min. and the supernatant collected. Luciferase activity was assayed using 20 μl of supernatant and 100 μl of Luciferase reagent for 10 seconds using a GloMax® Luminometer (Promega, Wis.).
In each case, cationic liposome injection was followed two minutes later by IV injection of 40 μg of an mCMV-EF1-luciferase, CPG-free, single cassette, DNA vector. […]

human G-CSF = test: Serum human G-CSF ELISA in mice after sequential IV cationic liposome then CPG-free DNA vector injection; format: in vivo; details: IP 2 hours before and 2 hours after 900 nmol DOTAP SUV then 70 ug DNA, dexamethasone 40 mg/kg, Tofacitinib 15 mg/kg
Procedure: Three to five mice were injected per group.
Each mouse was anesthetized and then bled via the submandibular vein. Serum was then isolated from whole blood and human G-CSF levels measured in pg/ml, as performed strictly according to the manufacturer's specifications, using an R and D systems human G-CSF ELISA.
Five mice were injected per group. […] Serum hG-CSF levels were assessed beginning at day seven after IV injection, and at seven-day intervals thereafter.
Sera were collected from groups of four mice at either day 6 or 14 following sequential, IV injection of 800 nmoles of pure DOTAP MLV cationic liposomes, followed two minutes later by IV injection of 40 μg either an EF1-luciferase—EF1-hGCSF (2 expression cassette) or an EF1-hGCSF (1 expression cassette), CPG-free, single plasmid DNA vector.
Sera were collected from groups of four mice at day 1 following sequential, IV injection of buffer alone (control), 1000 nmoles of pure DOTAP SUV cationic liposomes, alone or co-injected with 1000 nmol of neutral MLV, followed two minutes later by IV injection of 120 μg an EF1-luciferase—EF1-hGCSF (2 expression cassette), CPG-free, single plasmid DNA vector or 1400 nmoles of pure DOTAP SUV cationic liposomes, alone or co-injected with 1000 nmol of neutral MLV, followed two minutes later by IV injection of 100 μg of EF1-luciferase—EF1-hGCSF DNA. […]

[3] = system: CD20-expressing human Raji B cells; test: FACS binding to Raji cells; format: cell-based; details: anti-human IgG-PE, serum six weeks after injection
Procedure: In this Example, Raji cells (1 million/sample) were incubated with mouse serum samples or recombinant Rituximab (50 ng/ml) for 1 hr at 4C, in FACS binding buffer containing EDTA and 0.5% BSA. Following washes, samples were incubated with fluorescently labeled secondary antibody (anti-human IgG-PE) for 30 min, washed and analyzed using an Accuri flow cytometer. Between 3500-5000 events were recorded for each sample. The experiment was repeated twice with similar results.

[4] = in vivo; cited from earlier work
[5] = drug with 800 nmoles DOTAP MLV (L-arginine 2 mg/kg, colchicine 0.01 mg/kg, dexamethasone 1 mg/kg) then 40 μg single cassette mCMV-EF1-luciferase
[6] = drug with 800 nmoles DOTAP MLV then 40 μg dual cassette EF1-luciferase—EF1-hGCSF

**Q.** What does the source list for `CCCC(CCC)C(=O)O` [valproic acid]?
**A.** serum Rituximab levels (Rituximab): significantly increased; serum human factor IX levels (human factor IX): significantly higher

**Q.** For `Cn1c(=O)c2[nH]cnc2n(C)c1=O` [Theophylline], which “serum Rituximab levels” value (Rituximab) is on record?
**A.** significantly increased

**Q.** And the “serum human factor IX levels” value (human factor IX)?
**A.** significantly higher

**Q.** For `CCN(CC)CCCC(C)Nc1ccnc2cc(Cl)ccc12` (centres unmarked) [chloroquine], which “spleen gene expression (luciferase) levels” value (shortened to “spleen gene expression”) (luciferase [1]) is on record?
**A.** increased gene expression levels

**Q.** Which results are given for `N=C(N)NCCC[C@H](N)C(=O)O` [L-arginine]?
**A.** luciferase activity in the lung vs DOTAP MLV alone (control) (luciferase [2]; [5]): failed to increase gene expression levels; luciferase activity in the lung vs DOTAP MLV alone (control) (luciferase [2]; [6]): either lower than or comparable to controls

**Q.** Which HuG-CSF protein levels (human G-CSF) does the source give for `C[C@@H]1CCN(C(=O)CC#N)C[C@@H]1N(C)c1ncnc2[nH]ccc12` [tofacitinib] here?
**A.** did neither

**Q.** For `O=C(CCCCCCC(=O)Nc1ccccc1)NO` [SAHA, suberanilohydroxamic acid], which “spleen gene expression” value (luciferase [1]) is on record?
**A.** increased gene expression levels

**Q.** With “Recombinant Rituximab: recombinant Rituximab (anti-CD20) protein used as reference” as the molecule, how does the “Mean Fluorescence Intensity” value [3] read?
**A.** 5781.87

**Q.** For `CC(C)c1ccc2oc3nc(N)c(C(=O)O)cc3c(=O)c2c1` [amlexanox], which “spleen gene expression” value (luciferase [1]) is on record?
**A.** increased gene expression levels

**Q.** Which “luciferase activity in the lung vs DOTAP MLV alone (control)” value (luciferase [2]; [5]) does the source give for `COc1cc2c(c(OC)c1OC)-c1ccc(OC)c(=O)cc1[C@@H](NC(C)=O)CC2` [colchicine] here?
**A.** higher luciferase activity

**Q.** For `CCCc1nn(C)c2c(=O)[nH]c(-c3cc(S(=O)(=O)N4CCN(C)CC4)ccc3OCC)nc12` [sildenafil], which “luciferase activity in the lung vs DOTAP MLV alone (control)” value (luciferase [2]; [6]) is on record?
**A.** higher luciferase activity

B1: Neupogen: recombinant human G-CSF protein (protein, UniProt P09919 31-207, looked up)
Granulocyte …: TPLGPASSLPQSFLLKCLEQVRKIQGDGAALQEKLVSECATYKLCHPEELVLLGHSLGIPWAPLSSCPSQALQLAGCLSQLHSGLFLYQGLLQALEGISPELGPTLDTLQLDVADFATTIWQQMEELGMAPALQPTQGAMPAFASAFQRRAGGVLVASHLQSFLEVSYRVLRHLAQP
modifications: filgrastim
**Q.** For B1, which “time for serum hG-CSF levels to return to baseline” value [4] is on record?
**A.** approximately 14 hours
